# Source: patent publication US9579313B2, “Hepatitis B antiviral agents” (Novira Therapeutics, Inc., priority 2013, dated 2017)
# Biological target: T1, HBV C150Bo capsid protein (HBV CA protein) (Hepatitis B virus genotype D subtype adw, UniProt P03147, C107A/C48A/C61A/R150C)
# T1 construct: amino acids 1-150, C49A, C61A, C107A, 150C; made in house; host or cells: E. coli
# Test: HBV assembly assay (fluorescence quenching in vitro capsid assembly)
# Format: biochemical
# Conditions: not given
# Source text: The fluorescence quenching in vitro assembly HBV assay was developed according to a method described by Zlotnick and coworkers (Nature Biotechnology 2006, 24:358). The assay is based on the observation that the C-termini of the HBV core protein cluster together during capsid formation. This assay utilizes a mutant C150 HBV capsid protein where all wild-type cysteines are mutated to alanines, but a C-terminal cysteine residue is preserved and is labeled with fluorescent BoDIPY-FL dye. […] Thus, the assay measures the ability and potency of test compounds to modulate capsid assembly by monitoring the fluorescence of the labeled capsid C150Bo protein.
# In a typical assay, the mutant HBV C150 protein (amino acids 1-150, C49A, C61A, C107A, 150C) is cloned into a T7 RNA-polymerase based expression vector, expressed in E. coli and purified to homogeneity as a dimer. The purified HBV core protein is desalted and labeled with BODIPY-FL Dye.
# In a non-limiting embodiment, the assembly assay is conducted in 96-well plate format. The assembly reactions are carried out in 50 mM Hepes buffer, pH 7.5 and 150 mM NaCl. The compounds are pre-incubated with the HBV CA protein for 15 min, and the assembly reactions are initiated by addition of NaCl. The reaction is allowed to continue for 1 hour at room temperature.
# To determine the effect on capsid assembly, each test compound is initially screened at 4 different concentrations: 10 μM, 3 μM, 1 μM and 0.3 μM in duplicates. […] Identified primary hits are confirmed in follow-up studies as described elsewhere herein. […] EC50 values for test compounds are determined via analysis of the dose-response curve.
# Selected compounds of the invention were assayed in the HBV assembly assay, as described elsewhere herein. The assembly assay was conducted in 96-well plate format. The assembly reactions were carried out in 50 mM Hepes buffer, pH 7.5 and 150 mM NaCl. The compounds were pre-incubated with the HBV CA protein for 15 min, and the assembly reactions were initiated by addition of NaCl. The reaction was allowed to continue for 1 hour at room temperature.
# To determine the effect on capsid assembly, each test compound was initially screened at 4 different concentrations: 10 μM, 3 μM, 1 μM and 0.3 μM in duplicates.
# T1 sequence (P03147 1-150 C48A/C61A/C107A/R150C): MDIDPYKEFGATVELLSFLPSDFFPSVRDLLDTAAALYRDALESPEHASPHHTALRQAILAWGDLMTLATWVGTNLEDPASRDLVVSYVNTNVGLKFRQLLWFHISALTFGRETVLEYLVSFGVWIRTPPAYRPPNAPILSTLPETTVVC
row,SMILES,EC50 [µM]
1,O=C(Nc1ccc(F)c(F)c1)c1cc(S(=O)(=O)N2CCC(O)(CO)CC2)cc2[nH]ccc12 [Compound 1304],< 10
2,O=C(Nc1cc(F)c(F)c(F)c1)c1cc(S(=O)(=O)N2CC(O)C2)cc2[nH]ccc12 [Compound 1299],< 10
3,O=C(Nc1ccc(F)c(F)c1)c1cc(S(=O)(=O)N2CCC(CO)C(O)C2)cc2[nH]ccc12 (stereo not shown) [Compound 1292],< 10
4,O=C(Nc1cc(F)c(F)c(F)c1)c1cc(S(=O)(=O)N2CCC(O)CC2)cc2[nH]ccc12 [Compound 1287],< 10
5,O=C(Nc1cc(F)c(F)c(F)c1)c1cc(S(=O)(=O)N2CCC(O)(CO)CC2)cc2[nH]ccc12 [Compound 1303],< 10
6,NC1CCN(S(=O)(=O)c2cc(C(=O)Nc3cc(F)c(F)c(F)c3)c3cc[nH]c3c2)CC1 [Compound 1508],< 10
7,O=C(Nc1ccc(F)c(F)c1)c1cc(S(=O)(=O)N2CC(O)C(F)C2)cc2[nH]ccc12 (stereo not shown) [Compound 1296],< 10
8,O=C(Nc1cc(F)c(F)c(F)c1)c1cc(S(=O)(=O)N2CCC(CO)C(O)C2)cc2[nH]ccc12 (stereo not shown) [Compound 1291],< 10
9,COC1(CO)CCN(S(=O)(=O)c2cc(C(=O)Nc3cc(F)c(F)c(F)c3)c3cc[nH]c3c2)CC1 [Compound 1536],< 10
10,COCC1(O)CCN(S(=O)(=O)c2cc(C(=O)Nc3ccc(F)c(Cl)c3)c3cc[nH]c3c2)CC1 [Compound 1534],< 10
11,COCC1(O)CCN(S(=O)(=O)c2cc(C(=O)Nc3cc(F)c(F)c(F)c3)c3cc[nH]c3c2)CC1 [Compound 1533],< 10
12,COCC1(O)CCN(S(=O)(=O)c2cc(C(=O)Nc3ccc(F)c(F)c3)c3cc[nH]c3c2)CC1 [Compound 1535],< 10
13,O=C(Nc1ccc(F)c(Cl)c1)c1cc(S(=O)(=O)N2CC(O)C(F)C2)cc2[nH]ccc12 (stereo not shown) [Compound 1294],< 10
14,O=C(Nc1ccc(F)c(F)c1)c1cc(S(=O)(=O)N2CC(O)C2)cc2[nH]ccc12 [Compound 1300],< 10
15,O=C(Nc1ccc(F)c(Cl)c1)c1cc(S(=O)(=O)N2CCC(O)CC2)cc2[nH]ccc12 [Compound 949],< 10

# Same assay, conditions: control compounds
row,SMILES,EC50 of control compounds in assembly assay
1,"COC(=O)C1=C(C)NC(c2ccccn2)=NC1c1ccc(F)cc1Cl (stereo not shown) [HAP-1, reference compound]",consistent with the literature

# Tested on: HBV replication in HepG2-2.2.15 cells
# Test: Dot-blot assay of HBV replication (HBV DNA levels)
# Conditions: Hepatitis B virus, HepG2 2.2.15, 144 h, read-out: Activity in dot-blot-assay (EC50, reduction in HBV DNA levels)
# Protocol: In the first anti-viral assay, the ability of compounds to inhibit HBV replication in an HBV-producing hepatoma cell line using the dot-blot method is evaluated.
# Briefly, confluent monolayers of HepG2-2.2.15 cells are incubated with complete medium containing various concentrations of a test compound. Three days later, the culture medium is replaced with fresh medium containing the appropriately diluted test compound. Six days following the initial administration of the test compound, the cell culture supernatant is collected, and cell lysis is performed. The samples are applied onto Nylos membranes and DNA is immobilized to the membrane by UV cross-linking. After pre-hybridization, the HBV probe is added and the hybridization is performed overnight. The membranes are exposed to the Kodak films; antiviral activity is calculated from the reduction in HBV DNA levels (EC50).
# In the first anti-viral assay, the ability of compounds to inhibit HBV replication in an HBV-producing hepatoma cell line using the dot-blot method was evaluated.
# Confluent monolayers of HepG2-2.2.15 cells were incubated with complete medium containing various concentrations of a test compound. Three days later, the culture medium was replaced with fresh medium containing the appropriately diluted test compound. Six days following the initial administration of the test compound, the cell culture supernatant was collected, and cell lysis was performed. The samples were applied onto Nylos membranes and DNA was immobilized to the membrane by UV cross-linking. After pre-hybridization, the HBV probe was added and the hybridization was performed overnight. The membranes were exposed to the Kodak films; antiviral activity was calculated from the reduction in HBV DNA levels (EC50).
row,SMILES,EC50 [µM]
1,COC1(CO)CCN(S(=O)(=O)c2cc(C(=O)Nc3ccc(F)c(Cl)c3)c3cc[nH]c3c2)CC1 [Compound 1537],< 10
2,O=C(Nc1ccc(F)c(Cl)c1)c1cc(S(=O)(=O)N2CCC(O)CC2)c2[nH]cnc2c1 [Compound 1472],< 10
3,O=C(Nc1ccc(F)c(Cl)c1)c1cc(S(=O)(=O)N2CC(O)C2)cc2[nH]ccc12 [Compound 1298],< 10
4,NC1CCN(S(=O)(=O)c2cc(C(=O)Nc3cc(F)c(F)c(F)c3)c3cc[nH]c3c2)CC1 [Compound 1508],< 10
5,O=C(Nc1ccc(F)c(Cl)c1)c1cc(S(=O)(=O)N2CCC(O)(CO)CC2)cc2[nH]ccc12 [Compound 1302],< 10
6,O=C(Nc1ccc(F)c(F)c1)c1cc(S(=O)(=O)N2CCC(O)CC2)cc2[nH]ccc12 [Compound 1288],< 10
7,O=C(Nc1ccc(F)c(Cl)c1)c1cc(S(=O)(=O)N2CCC(CO)C(O)C2)cc2[nH]ccc12 (stereo not shown) [Compound 1290],< 10
8,COCC1(O)CCN(S(=O)(=O)c2cc(C(=O)Nc3cc(F)c(F)c(F)c3)c3cc[nH]c3c2)CC1 [Compound 1533],< 10
9,COCC1(O)CCN(S(=O)(=O)c2cc(C(=O)Nc3ccc(F)c(F)c3)c3cc[nH]c3c2)CC1 [Compound 1535],< 10
10,O=C(Nc1ccc(F)c(Cl)c1)c1cc(S(=O)(=O)N2CC(O)C(F)C2)cc2[nH]ccc12 (stereo not shown) [Compound 1294],< 10
11,O=C(Nc1ccc(F)c(F)c1)c1cc(S(=O)(=O)N2CC(O)C2)cc2[nH]ccc12 [Compound 1300],< 10
12,O=C(Nc1ccc(F)c(Cl)c1)c1cc(S(=O)(=O)N2CCC(O)CC2)cc2[nH]ccc12 [Compound 949],< 10
